In brackets after ≈: the same amount, converted by molar mass. Where two headings read alike, the source gives them in different places.
Legend:
Caulobacter = Caulobacter morphology (DIC images); type: cell-based, Caulobacter crescentus; settings: drugs that affect eukaryotic actin
Text: Consistent with previous observations in E. coli (Iwai et al., 2002), A22 caused a dose-dependent alteration of Caulobacter morphology, transforming normal, crescent-shaped cells into rounded, lemon-shaped cells. The progression of cell shape deformation by A22 treatment was qualitatively similar to that caused by mreB depletion, though the A22 effect was more rapid (FIGS. […]). […] For example, A22 could disrupt the localization of new cell wall synthesis but have no effect on the existing cell wall, such that without additional growth and wall synthesis A22's effects cannot be perceived. A dependence on cell growth could also explain why A22's effect on morphology takes several hours to manifest.
Microscopy and Timelapse Imaging. All experiments other than the A22 flow-cell analysis were performed by mounting the samples on 1% agarose pads as described, with the appropriate concentration of A22 added to the agarose. The rates of origin-distal locus segregation were determined by inducing PxyI:lacI:cfp expression with 0.03% xylose for 75 min, isolating swarmer cells, and growing the swarmer cells in M2G liquid medium for 50 min. After 50 min, 10 μg/ml of A22 was added to these liquid cultures, they were mounted onto 1% M2G agarose pads containing 10 μg/ml A22, and a phase and CFP fluorescence image was captured every 2 min for 60 min. The images were analyzed by previously described software to determine the average position and rate of movement of the observed foci.

B. subtilis 168 = test: Determination of minimum inhibitory concentration (MIC); type: cell-based, Bacillus subtilis
Protocol: (§1) Determination of minimum inhibitory concentration (MIC). MICs were also determined on Mueller Hinton agar plates (0.2% beef extract, 1.75% acid digest of casein, 0.15% soluble starch, 1.5% agar, pH 7.3).
(§2) Determination of MIC Minimal inhibitory concentrations (MICs) were determined using a standard 2-fold serial dilution format on L agar plates. Ten microliters of stationary culture diluted in 0.85% NaCl to 10^6 cells/ml were spotted on per plate. […] MICs were also determined on Mueller Hinton agar plates (0.2% beef extract, 1.75% acid digest of casein, 0.15% soluble starch, 1.5% agar, pH 7.3).

[1] = tested on: E. coli K-12 strain SH3210; test: Anucleate cell blue assay; type: cell-based
Protocol: Anucleate cell blue assay. The anucleate cell blue assay was carried out as reported previously. Briefly, E. coli K-12 strain SH3210 (ΔtrpE5 his λ pXX747) was grown in a P medium containing 1% Polypepton and 0.5% NaCl (pH 7). Paper disks (φ 8 mm) each soaked with 20 μl of a sample solution were placed on P medium agar plates (1.5% agar) containing 10^4 cells/ml of SH3210 and 40 μg/ml of 5-bromo-4-chloro-3-indolyl β-D-galactoside. The plates were incubated at 42° C. for 24 h, and the development of a blue color and the growth inhibitory zone around the paper disks were evaluated.
Since 1 had originally been found through screening by an anucleate cell blue assay, the effect of each compound was first examined by this assay.

S. typhimurium NBRC13245 = test: Determination of minimum inhibitory concentration (MIC); type: cell-based, Salmonella typhimurium; settings: for MIC: Salmonella enterica, read-out: MIC S. typhimurium
Protocol: as §1, §2

E. coli MG1655 [2] = test: Microscopic observation of cell shape; type: cell-based; settings: for Effect on E. coli cell morphology (in words): 3×MIC or 300 μg/ml, 16 hrs
Protocol: Microscopic observation. E. coli K-12 strain MG1655 (F^− λ^−) was grown in Lennox broth containing 1% Polypepton, 0.5% yeast extract, 0.5% NaCl, and 0.1% glucose (pH 7.2). Cells spread on a slide glass were treated with methanol for 5 min and covered with poly-L-lysine. The fixed cells were observed by the differential interference contrast system through an Axioskop 2 microscope (Carl Zeiss Co., Ltd., Oberkochen, Germany). To observe the anucleate cells, cells were stained with a 4′,6-diamidino-2-phenylindole (DAPI) solution (5 μg/ml in saline) and then observed by the fluorescence phase-contrast combined method.
The effect of each compound on E. coli cell morphology was next examined.

E. coli MG1655 [3] = test: Determination of minimum inhibitory concentration (MIC); type: cell-based; settings: for MIC: Escherichia coli
Protocol: as §1, §2

[4] = tested on: S. aureus subsp. aureus NBRC15035; test: as above; type: cell-based, Staphylococcus aureus; settings: for MIC: Staphylococcus aureus
Protocol: as §1, §2

P. putida NBRC14164 = test: as above; type: cell-based, Pseudomonas putida; settings: for MIC: Pseudomonas putida
Protocol: as §1, §2

[5] = Bacillus subtilis, 168, Example 2, methods as in Example 1, read-out: MIC B. subtilis
[6] = Bacillus subtilis, 168, Table 1, B. subtilis 168, read-out: MIC B. subtilis
[7] = Example 2, methods as in Example 1
[8] = E. coli MG1655 treated at 300 μg/ml (**), 30° C., 16 h
[9] = MG1655, Example 2, methods as in Example 1, read-out: MIC E. coli
[10] = MG1655, Table 1, E. coli MG1655, read-out: MIC E. coli
[11] = NBRC15035, Example 2, methods as in Example 1, read-out: MIC S. aureus
[12] = NBRC15035, Table 1, NBRC15035, read-out: MIC S. aureus
[13] = NBRC14164, Example 2, methods as in Example 1, read-out: MIC P. putida
[14] = NBRC14164, Table 1, NBRC14164, read-out: MIC P. putida
[15] = E. coli MG1655 treated at 3×MIC (*), 30° C., 16 h

SMILES	MIC (B. subtilis 168; [5])	MIC (B. subtilis 168; [6])	Growth inhibitory zone and blue zone in the anucleate cell blue assay (in words) [1]	MIC (S. typhimurium NBRC13245; [7])	MIC (S. typhimurium NBRC13245; Table 1, NBRC13245)	Shape (E. coli MG1655 [2]; [8])	Shape (E. coli MG1655 [2]; [7])	MIC (E. coli MG1655 [3]; [9])	MIC (E. coli MG1655 [3]; [10])	MIC [4, 11]	MIC [4, 12]	MIC (P. putida NBRC14164; [13])	MIC (P. putida NBRC14164; [14])	Effect on E. coli cell morphology (in words) (E. coli MG1655 [2]; 30° C.)	Shape (E. coli MG1655 [2]; [15])	also measured
C=C1[C@@H](C)[C@H]2[C@H](Cc3ccccc3)NC(=O)[C@]23[C@H](OC(C)=O)/C=C/[C@@](C)(O)C(=O)[C@@H](C)C/C=C/[C@H]3[C@@H]1O [cytochalasin D]																Caulobacter growth rate or morphology (Caulobacter): failed to perturb growth rate or morphology
S=C=NCc1ccccc1 [Compound 8, benzylisothiocyanate, reference compound]	25 µg/mL (≈ 168 µM)	25 µg/mL (≈ 168 µM)	a growth inhibitory zone, but no blue zone developed	100 µg/mL (≈ 670 µM)	100 µg/mL (≈ 670 µM)	Rod**	Rod	50 µg/mL (≈ 335 µM)	50 µg/mL (≈ 335 µM)	12.5 µg/mL (≈ 83.8 µM)	12.5 µg/mL (≈ 83.8 µM)	> 100 µg/mL	> 100 µg/mL			
O=C=NCc1ccccc1 [Compound 9, benzylisocyanate, reference compound]			neither a growth inhibitory zone nor blue zone			Rod**	Rod									MIC (B. subtilis 168; Bacillus subtilis, 168, read-out: MIC B. subtilis): > 100 µg/mL; MIC B. subtilis (B. subtilis 168; [7]): >100 µg/mL; MIC S. typhimurium (S. typhimurium NBRC13245; [7]): >100 µg/mL; MIC (S. typhimurium NBRC13245): > 100 µg/mL; MIC (E. coli MG1655 [3]; MG1655, read-out: MIC E. coli): > 100 µg/mL; MIC E. coli (E. coli MG1655 [3]; [7]): >100 µg/mL; MIC S. aureus [4, 7]: >100 µg/mL; MIC ([4]; NBRC15035, read-out: MIC S. aureus): > 100 µg/mL; MIC P. putida (P. putida NBRC14164; [7]): >100 µg/mL; MIC (P. putida NBRC14164; NBRC14164, read-out: MIC P. putida): > 100 µg/mL
N=C(N)SCc1ccc(Cl)cc1 [Compound 2, S-(4-chlorobenzyl)isothiourea]	> 100 µg/mL	> 100 µg/mL	deep blue zone around a growth inhibitory zone almost comparable to those of 1	3.13 µg/mL (≈ 15.6 µM)	3.13 µg/mL (≈ 15.6 µM)		Sphere	3.13 µg/mL (≈ 15.6 µM)	3.13 µg/mL (≈ 15.6 µM)	> 100 µg/mL	> 100 µg/mL	> 100 µg/mL	> 100 µg/mL	induced a spherical cell shape	Sphere*	
N=C(N)SCC1CCCCC1 [Compound 4]	> 200 µg/mL	> 100 µg/mL	neither a growth inhibitory zone nor blue zone	> 200 µg/mL	> 100 µg/mL	Rod**	Short Rod	> 200 µg/mL	> 100 µg/mL	> 200 µg/mL	> 100 µg/mL	> 200 µg/mL	> 100 µg/mL	shorter than corresponding untreated cells, but spherical cells were not induced		
N=C(N)SCc1ccccc1 [Compound 3, S-benzylisothiourea]	> 100 µg/mL	> 100 µg/mL	blue zone just around the paper disk, but only a marginal growth inhibitory zone was detected	> 100 µg/mL	> 100 µg/mL		Sphere	100 µg/mL (≈ 602 µM)	100 µg/mL (≈ 602 µM)	> 100 µg/mL	> 100 µg/mL	> 100 µg/mL	> 100 µg/mL	induced a spherical cell shape	Sphere*	
